Reference: patent publication US8680233B2, “Heteropeptides useful for reducing nonspecific adsorption” (Valorisation-Recherche, Limited Partnership, priority 2009, dated 2014)
Numbered stars: 1 amine (or outer) side, 2 acyl side, 3 side chain; on linkers, the order of the positions; unused ones are H or OH. Square brackets hold non-standard residues; d marks the D form. Peptide text beside a SMILES is read from it. Haic = O=C1[C@@H](N[*:1])CCc2cccc3c2N1[C@H](C(=O)[*:2])C3; dTrp(2-Me) = Cc1[nH]c2ccccc2c1C[C@@H](N)C(=O)O

Key:
[1] = target: recombinant soluble His-tagged CD36 (Homo sapiens, UniProt P16671); assay: SPR screening of peptide ligands on a CD36 functionalized sensor; assay type: binding; conditions: increasing ligand concentrations
Protocol: (§1) The SPR sensors for screening small peptidic ligand binding to a recombinant soluble His-tagged CD36 functionalized surfaces were prepared as described above. Five ligands were investigated: EP80317, CP-2B(i), CP-3(iv), CP-2A(v) and DBG-178(27) with concentrations ranging from 30 μM to 100 nM except for EP80317. The latter was used for optimizing the system with solutions ranging from 1 mM to 100 nM. EP80317 (HAIC-2MeDTrp-DLys-Trp-D-Phe-Lys-NH2) is a positive control of known activity, CP-2B(i) (His-DTrp-AzaLeu-Trp-DPhe-Ala-NH2) is a negative control, and CP-3(iv) (Ala-DTrp-Ala-AzaPhe-DPhe-Lys-NH2), CP-2A(v) (His-DTrp-AzaGly-Trp-DPhe-Lys-NH2) and DBG-178(27) (His-DTrp-Ala-azaTyr-DPhe-Lys-NH2) are novel CD36 ligands (see PCT publication No. WO 08/154,738). Another negative control was accomplished by exposing the His-tagged hDHFR functionalized surface to the same concentration of CD36 peptidic ligand. Two different approaches were used to remove the His-tagged CD36-Cu complex from the SPR sensors: concentrated histidine solution or saturated EDTA solution.
This is the case of the CD36-ligand system investigated herein, where the ligands are small peptides of about 800 to 1000 g/mol. Indeed, according to the aforementioned principle, the binding of the small peptides to the CD36 receptor should be close to the limit of detection, thus providing unreliable affinity measurements. […] This could be a consequence of a large conformational change of the CD36 receptor upon binding of specific ligands, thus providing the amplification sufficient for SPR signal detection.
The SPR setup was used for investigating the structure-activity relationships of various CD36 peptidic ligands. […] The measured KD's were compared to the EC50 values obtained in the activated src-kinase assay following CD36 receptor activation by the tested peptides. […] For the src-kinase cellular assay, the response sensitivity (EC50) for the tested peptides (in decreasing order) was as follows: EP80317>CP-2A(v)>CP-3(iv)>DBG-178(27)>CP-2B(i). With SPR, the binding affinity to CD36, in decreasing order, was: DBG-178(27)>CP-2A(v)>EP80317>CP-3(iv)>CP-2B(i). […] For CD36-peptidic ligands, a correlation appears between the affinity binding of the small peptides for CD36 as determined by SPR and their efficiency to produce a cellular response in the src kinase assay. Thus, SPR appears as a selective and sensitive method to screen for CD36 ligands.

His-tagged hDHFR = target: T1, His-tagged hDHFR (Homo sapiens, UniProt P00374); assay: SPR blank assay on a hDHFR-His-Tag functionalized sensor; assay type: binding; conditions: same peptide concentrations
T1 construct: made in house
T1 sequence (P00374 1-187): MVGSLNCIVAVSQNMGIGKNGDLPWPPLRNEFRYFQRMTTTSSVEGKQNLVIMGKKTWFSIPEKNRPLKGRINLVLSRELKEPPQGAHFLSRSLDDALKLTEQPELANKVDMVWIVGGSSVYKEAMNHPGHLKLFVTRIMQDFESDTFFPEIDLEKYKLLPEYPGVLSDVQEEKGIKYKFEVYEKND
Protocol: as §1
This is the case of the CD36-ligand system investigated herein, where the ligands are small peptides of about 800 to 1000 g/mol. Indeed, according to the aforementioned principle, the binding of the small peptides to the CD36 receptor should be close to the limit of detection, thus providing unreliable affinity measurements. […]

Sequence of recombinant soluble His-tagged CD36 (P16671 30-439 limits assumed): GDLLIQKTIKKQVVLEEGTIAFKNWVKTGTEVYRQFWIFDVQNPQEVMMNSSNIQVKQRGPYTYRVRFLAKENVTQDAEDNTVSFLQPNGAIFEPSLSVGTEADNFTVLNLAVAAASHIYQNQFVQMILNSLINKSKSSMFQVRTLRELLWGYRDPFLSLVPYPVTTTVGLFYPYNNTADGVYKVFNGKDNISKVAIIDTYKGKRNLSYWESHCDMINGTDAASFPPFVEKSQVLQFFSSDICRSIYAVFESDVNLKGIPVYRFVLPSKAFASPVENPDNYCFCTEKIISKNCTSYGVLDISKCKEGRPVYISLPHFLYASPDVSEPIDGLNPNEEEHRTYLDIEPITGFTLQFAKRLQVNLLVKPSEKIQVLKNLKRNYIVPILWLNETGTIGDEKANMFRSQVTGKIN

Change of SPR signal on CD36-His-tag-functionalized surface [1]: large shift in the signal
Change of SPR signal on hDHFR-His-Tag functionalized sensor (His-tagged hDHFR): no significant change of signal
SMILES: Cc1[nH]c2ccccc2c1C[C@@H](NC(=O)[C@@H]1Cc2cccc3c2N1C(=O)[C@@H](N)CC3)C(=O)N[C@H](CCCCN)C(=O)N[C@@H](Cc1c[nH]c2ccccc12)C(=O)N[C@H](Cc1ccccc1)C(=O)N[C@@H](CCCCN)C(N)=O [EP80317, HAIC-2MeDTrp-DLys-Trp-D-Phe-Lys-NH2, reference compound] (Haic-[dTrp(2-Me)][dK]W[dF]K-NH2; N-terminus assumed)
